In publication PMC7824769, “Identification of Small Molecules Blocking the Pseudomonas aeruginosa Type III Secretion System Protein PcrV” (Biomolecules, 2021):

Biological target: PcrV (Pseudomonas aeruginosa, UniProt G3XD49)
Experiment: SPR library screening at 100 µM, PcrV versus deactivated control protein CAII
Assay type: binding
Conditions: Figure 2
Experimental: The SPR screening was performed using the ProteOn^TM XPR36 Protein Interaction Array System (Bio-Rad Laboratories Inc., Hercules, CA, USA) with ProteOn GLH sensor chip (Bio-Rad Laboratories Inc., Hercules, CA, USA), and the results were analyzed with the ProteOn Manager software^TM (Bio-Rad Laboratories Inc., Hercules, CA, USA), Excel 2016 (Microsoft Office), and GraphPad Prism 7.04. All SPR experiments were performed at 25 °C. The multichannel module of the ProteOn system was in the vertical position during protein immobilization. The proteins were attached to the surface of a GLH sensor chip via amine coupling chemistry. A buffer scouting was performed to elucidate the optimal binding conditions of PcrV to the GLH sensor chip. First, channels 1–4 on the chip surface were activated using a 1:1 mixture of 40 mM 1-ethyl-3-(3-dimethylaminopropyl)carbodiimide hydrochloride (EDAC) (Bio-Rad Laboratories Inc., Hercules, CA, USA) and 10 mM N-hydroxysulfosuccinimide (sulfo-NHS, Bio-Rad Laboratories Inc., Hercules, CA, USA) for 300 s at 30 µL/min. Next, the proteins PcrV (33,398.6 Da, 6.37 mg/mL) was diluted in 10 mM NaOAc (pH 4, 4.5, and 5) to 0.05 mg/mL. PcrV was immobilized in channel 1–3 for 540 s at 30 µL/min. […] The final amount of immobilized protein was measured in resonance units (RU) relative to the signal of the baseline prior activation. […]

PcrV, sequence (G3XD49 entry or part of it): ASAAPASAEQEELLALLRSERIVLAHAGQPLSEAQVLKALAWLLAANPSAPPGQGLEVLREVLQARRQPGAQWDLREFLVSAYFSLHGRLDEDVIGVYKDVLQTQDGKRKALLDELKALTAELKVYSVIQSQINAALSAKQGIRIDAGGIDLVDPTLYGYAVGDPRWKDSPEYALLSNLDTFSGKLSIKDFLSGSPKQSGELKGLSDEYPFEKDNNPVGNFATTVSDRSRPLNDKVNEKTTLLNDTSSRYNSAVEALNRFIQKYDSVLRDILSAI

Cc1c(Br)ccc(OCCCC(=O)O)c1C [Compound H1]
Selectivity of binding to PcrV over CAII in SPR screening: selective PcrV binders
